Assay [1] concerns the target ATP-dependent molecular chaperone HSP82 (Candida albicans (strain WO-1) (Yeast), UniProt C4YTQ8). The experiment in a line: loss of DOC-induced GRE-beta-galactosidase reporter signal, dose response, Hsp90 inhibitor project, S. cerevisiae, luminescence (AID 2400).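 Further: beta-galactosidase luminescence from glucocorticoid response element reporter as proxy for Hsp90 function; inhibitor potency where signal loss means Hsp90 inhibition.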 Format: functional, cell-based.
Assay [2] can be described thus: cytotoxicity toward NIH3T3 fibroblasts, dose response, counter-screen, cell-based, ATP luminescence, mouse fibroblasts (AID 2010).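 Further: cells exposed to compound for about 90 hours before reading.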 Format: functional. (The purpose of a counterscreen is to sort out artefacts and off-target activity.)
Assay [3] is described as follows: Counterscreen for AddAB inhibitors: absorbance-based bacterial cell-based high throughput dose response assay for inhibitors of bacterial viability. [Related pubchem assays (depositor defined):AID435030, AID449728, AID449731, AID488942, AID488955, AID488956]. Format: functional.
The target of the next assay is Hexokinase HKDC1 (Homo sapiens, UniProt Q2TB90). The experiment in a line: HKDC1 hexokinase inhibitors, dose response, biochemical, W721R variant (AID 504729). Format: functional.
A short description of assay [4]: miR-122 activators in hepatoma reporter cells, dose response, cell-based, Huh7 psiCHECK-miR122, Renilla luciferase, cherry-picked (AID 651956).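 Further: huh7 hepatoma cells stably carrying a psiCHECK-2 miR-122 sensor plasmid; renilla luciferase signal reporting endogenous miR-122 activity after 48 h compound exposure.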 Format: functional.
Assay [5] relates to BJ. The experiment in a line: cytotoxicity toward Ras-transformed BJeLR fibroblasts, dose response, cell-based, alamar blue fluorescence, cherrypicked samples (AID 2631).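 Further: confirmatory dose-response assay in RAS-dependent BJ fibroblasts engineered with TERT, LT and ST, with cytotoxicity read by fluorescence.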 The conditions noted are these: Homo sapiens. Format: functional.
The subject of assay [6] is BJ. In words: cytotoxicity toward BJ-TERT-LT-ST fibroblasts, dose response, cell-based, RAS-independent, luminescence (AID 1935).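 Further: BJ fibroblasts immortalized with TERT plus LT and ST oncogenes.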 Format: functional. The note with it: Homo sapiens.
A short description of assay [7]: control 3'UTR Renilla luciferase suppression, dose response, counter-screen for Shn3 inhibitor project, cell-based, Clone20-Shn3RL, cherry-picked (AID 624133). Format: functional.
Another assay has as its target T1, CAAX prenyl protease 1 (Saccharomyces cerevisiae S288c, UniProt P47154).
T1 sequence (P47154 whole entry): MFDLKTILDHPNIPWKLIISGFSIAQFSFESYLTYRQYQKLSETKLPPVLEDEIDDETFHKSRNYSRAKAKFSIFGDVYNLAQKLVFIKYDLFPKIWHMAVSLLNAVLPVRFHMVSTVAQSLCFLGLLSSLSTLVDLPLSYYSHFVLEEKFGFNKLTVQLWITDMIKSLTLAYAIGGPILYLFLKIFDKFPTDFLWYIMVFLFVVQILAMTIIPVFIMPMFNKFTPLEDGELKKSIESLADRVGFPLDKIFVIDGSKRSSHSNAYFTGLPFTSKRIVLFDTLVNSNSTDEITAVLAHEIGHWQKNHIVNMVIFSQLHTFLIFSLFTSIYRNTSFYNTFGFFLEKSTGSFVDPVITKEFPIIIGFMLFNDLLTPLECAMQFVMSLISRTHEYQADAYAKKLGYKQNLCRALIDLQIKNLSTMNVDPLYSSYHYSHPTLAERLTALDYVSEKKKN
The experiment in a line: Ste24 protease inhibitors, dose response, biochemical, S. cerevisiae, plate reader, cherry-pick (AID 488815).

A short description of assay [8]: HEK293T cytotoxicity, dose response, cytotoxicity control for miR-122 modulator project, cell-based, inhibitor set, cherry-pick, set 2 (AID 720697). Format: functional.
In assay [9] the test system is BJ. In words: cytotoxicity toward BJ-TERT fibroblasts, dose response, cell-based, RAS-independent, luminescence (AID 1933). Format: functional. The note with it: Homo sapiens.
Assay [10] addresses Maternal embryonic leucine zipper kinase (Homo sapiens, UniProt Q14680). Format: functional.
Assay [11] has as its target Ribosomal protein S6 kinase alpha-3 (Homo sapiens, UniProt P51812). Format: functional.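 Further: measured within a kinome-wide profiling panel.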
Another assay has as its target Misshapen-like kinase 1 (Homo sapiens, UniProt Q8N4C8). Format: functional.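 Further: kinome panel screen with MINK as the panel member.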
The target in assay [12] is Rho-associated protein kinase 2 (Homo sapiens, UniProt O75116). Format: functional.
Rho-associated protein kinase 2, sequence (O75116 whole entry): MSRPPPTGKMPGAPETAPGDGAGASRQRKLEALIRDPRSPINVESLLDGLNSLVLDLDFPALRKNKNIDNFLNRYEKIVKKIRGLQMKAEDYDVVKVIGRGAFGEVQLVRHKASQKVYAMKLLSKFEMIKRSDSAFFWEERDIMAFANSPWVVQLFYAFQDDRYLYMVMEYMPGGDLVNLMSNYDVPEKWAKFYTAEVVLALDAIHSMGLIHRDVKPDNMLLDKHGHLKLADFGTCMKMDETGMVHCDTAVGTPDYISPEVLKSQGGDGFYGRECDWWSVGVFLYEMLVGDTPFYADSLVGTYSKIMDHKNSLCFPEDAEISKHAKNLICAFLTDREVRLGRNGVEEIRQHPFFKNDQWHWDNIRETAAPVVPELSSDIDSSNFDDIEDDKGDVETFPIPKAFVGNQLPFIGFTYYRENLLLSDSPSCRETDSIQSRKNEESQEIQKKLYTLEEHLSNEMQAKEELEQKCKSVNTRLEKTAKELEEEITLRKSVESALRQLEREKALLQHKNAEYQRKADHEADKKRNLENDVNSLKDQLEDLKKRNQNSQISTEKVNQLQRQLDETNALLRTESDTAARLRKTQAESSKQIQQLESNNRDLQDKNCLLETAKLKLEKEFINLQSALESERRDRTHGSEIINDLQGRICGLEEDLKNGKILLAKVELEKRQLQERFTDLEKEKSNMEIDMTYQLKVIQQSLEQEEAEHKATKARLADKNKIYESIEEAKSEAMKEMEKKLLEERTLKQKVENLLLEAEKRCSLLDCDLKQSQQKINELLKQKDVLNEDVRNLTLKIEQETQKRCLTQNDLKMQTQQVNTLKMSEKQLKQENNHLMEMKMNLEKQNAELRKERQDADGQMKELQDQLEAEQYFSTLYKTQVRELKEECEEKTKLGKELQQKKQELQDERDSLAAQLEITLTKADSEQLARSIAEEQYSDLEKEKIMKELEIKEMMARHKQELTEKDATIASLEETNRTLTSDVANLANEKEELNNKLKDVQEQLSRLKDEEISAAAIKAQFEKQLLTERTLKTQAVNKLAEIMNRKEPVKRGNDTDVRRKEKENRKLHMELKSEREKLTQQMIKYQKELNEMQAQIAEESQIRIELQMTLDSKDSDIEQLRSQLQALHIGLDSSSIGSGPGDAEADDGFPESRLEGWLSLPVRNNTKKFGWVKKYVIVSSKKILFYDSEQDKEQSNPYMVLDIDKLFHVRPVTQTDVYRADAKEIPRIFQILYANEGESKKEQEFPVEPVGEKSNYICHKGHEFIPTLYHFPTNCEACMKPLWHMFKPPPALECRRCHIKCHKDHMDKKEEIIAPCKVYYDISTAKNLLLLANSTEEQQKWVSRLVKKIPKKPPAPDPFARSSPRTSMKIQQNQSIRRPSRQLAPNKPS
Assay [13] has as its target Homeodomain-interacting protein kinase 2 (Homo sapiens, UniProt Q9H2X6). Format: functional.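 Further: measured within a kinome-wide kinase profiling panel, HIPK2 being one panel member.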
Assay [14] deals with Mast/stem cell growth factor receptor Kit (Homo sapiens, UniProt P10721). Format: functional.
Assay [15] deals with G protein-coupled receptor kinase 5 (Homo sapiens, UniProt P34947). The experiment in a line: Navigating the Kinome. Panel member name: GPRK5. Format: functional.
Assay [16] addresses Casein kinase I isoform alpha (Homo sapiens, UniProt P48729). Format: functional.
Assay [17] addresses T2, Mannose-6-phosphate isomerase (Homo sapiens, UniProt P34949).
T2 sequence (P34949 whole entry): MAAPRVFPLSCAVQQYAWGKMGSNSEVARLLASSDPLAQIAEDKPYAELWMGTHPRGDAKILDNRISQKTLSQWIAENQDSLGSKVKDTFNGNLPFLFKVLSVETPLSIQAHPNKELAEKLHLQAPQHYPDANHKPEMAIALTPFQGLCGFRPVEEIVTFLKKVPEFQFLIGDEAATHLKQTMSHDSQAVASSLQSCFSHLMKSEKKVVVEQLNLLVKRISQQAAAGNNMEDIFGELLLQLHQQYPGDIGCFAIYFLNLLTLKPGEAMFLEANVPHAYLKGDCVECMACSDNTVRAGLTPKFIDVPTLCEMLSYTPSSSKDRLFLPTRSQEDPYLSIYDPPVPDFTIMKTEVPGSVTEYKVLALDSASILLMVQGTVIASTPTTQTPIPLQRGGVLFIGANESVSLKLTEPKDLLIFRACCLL
In words: human PMI inhibitors, high substrate, primary screen, biochemical, fluorescence intensity, high mannose 6-phosphate (AID 1220).

This is an account of results in ChEMBL document CHEMBL1201862, “PubChem BioAssay data set” (2004).

Activity calls are given as the source filed them. Some results are limits rather than exact numbers.

As a reminder, the EC50 is the midpoint of the concentration-response curve. As a reminder, the IC50 is the concentration at which inhibition is half-maximal. As usually defined, the AC50 is the concentration at which the activity in the assay is half-maximal. For orientation: Ki means a measure of affinity in units of concentration, obtained from inhibition or displacement. The pKi is the Ki on a negative log10 scale, so that one unit is a factor of ten. A low value points to a large Ki.

Misshapen-like kinase 1, sequence (Q8N4C8 whole entry): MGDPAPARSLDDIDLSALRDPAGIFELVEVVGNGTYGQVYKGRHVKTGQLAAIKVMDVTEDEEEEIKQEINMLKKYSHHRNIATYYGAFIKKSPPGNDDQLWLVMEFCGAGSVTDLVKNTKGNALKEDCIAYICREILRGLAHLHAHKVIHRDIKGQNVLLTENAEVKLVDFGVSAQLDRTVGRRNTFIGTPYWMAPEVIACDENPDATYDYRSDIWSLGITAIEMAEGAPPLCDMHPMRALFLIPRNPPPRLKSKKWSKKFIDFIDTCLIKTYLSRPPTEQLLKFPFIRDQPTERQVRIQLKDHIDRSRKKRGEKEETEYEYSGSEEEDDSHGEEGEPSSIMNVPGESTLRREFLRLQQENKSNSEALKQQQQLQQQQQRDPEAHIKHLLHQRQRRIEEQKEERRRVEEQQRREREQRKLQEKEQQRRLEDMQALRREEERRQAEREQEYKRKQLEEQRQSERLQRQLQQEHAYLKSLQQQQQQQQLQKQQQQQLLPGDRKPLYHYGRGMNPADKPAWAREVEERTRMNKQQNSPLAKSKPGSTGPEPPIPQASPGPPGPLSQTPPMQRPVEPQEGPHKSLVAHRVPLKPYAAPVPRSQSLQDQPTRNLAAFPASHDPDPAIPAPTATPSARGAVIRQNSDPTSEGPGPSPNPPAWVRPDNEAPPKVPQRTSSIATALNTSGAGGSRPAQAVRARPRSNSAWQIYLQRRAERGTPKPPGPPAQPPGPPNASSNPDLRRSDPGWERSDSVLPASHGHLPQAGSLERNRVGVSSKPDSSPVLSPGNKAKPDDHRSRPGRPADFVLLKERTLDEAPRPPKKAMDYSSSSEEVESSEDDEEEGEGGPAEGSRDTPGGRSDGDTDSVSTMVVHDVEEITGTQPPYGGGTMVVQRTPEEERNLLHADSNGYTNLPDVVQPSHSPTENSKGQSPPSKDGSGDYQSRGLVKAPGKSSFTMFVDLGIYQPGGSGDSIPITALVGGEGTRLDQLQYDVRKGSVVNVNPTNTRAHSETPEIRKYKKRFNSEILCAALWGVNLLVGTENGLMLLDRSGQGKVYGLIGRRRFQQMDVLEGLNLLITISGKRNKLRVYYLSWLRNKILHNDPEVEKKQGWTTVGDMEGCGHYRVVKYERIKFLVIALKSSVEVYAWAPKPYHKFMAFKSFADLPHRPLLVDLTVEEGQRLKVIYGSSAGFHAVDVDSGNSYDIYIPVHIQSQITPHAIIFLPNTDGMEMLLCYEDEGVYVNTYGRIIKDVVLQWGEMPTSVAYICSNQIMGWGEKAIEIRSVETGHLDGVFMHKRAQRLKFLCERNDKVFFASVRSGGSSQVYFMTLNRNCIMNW
Homeodomain-interacting protein kinase 2, sequence (Q9H2X6 whole entry): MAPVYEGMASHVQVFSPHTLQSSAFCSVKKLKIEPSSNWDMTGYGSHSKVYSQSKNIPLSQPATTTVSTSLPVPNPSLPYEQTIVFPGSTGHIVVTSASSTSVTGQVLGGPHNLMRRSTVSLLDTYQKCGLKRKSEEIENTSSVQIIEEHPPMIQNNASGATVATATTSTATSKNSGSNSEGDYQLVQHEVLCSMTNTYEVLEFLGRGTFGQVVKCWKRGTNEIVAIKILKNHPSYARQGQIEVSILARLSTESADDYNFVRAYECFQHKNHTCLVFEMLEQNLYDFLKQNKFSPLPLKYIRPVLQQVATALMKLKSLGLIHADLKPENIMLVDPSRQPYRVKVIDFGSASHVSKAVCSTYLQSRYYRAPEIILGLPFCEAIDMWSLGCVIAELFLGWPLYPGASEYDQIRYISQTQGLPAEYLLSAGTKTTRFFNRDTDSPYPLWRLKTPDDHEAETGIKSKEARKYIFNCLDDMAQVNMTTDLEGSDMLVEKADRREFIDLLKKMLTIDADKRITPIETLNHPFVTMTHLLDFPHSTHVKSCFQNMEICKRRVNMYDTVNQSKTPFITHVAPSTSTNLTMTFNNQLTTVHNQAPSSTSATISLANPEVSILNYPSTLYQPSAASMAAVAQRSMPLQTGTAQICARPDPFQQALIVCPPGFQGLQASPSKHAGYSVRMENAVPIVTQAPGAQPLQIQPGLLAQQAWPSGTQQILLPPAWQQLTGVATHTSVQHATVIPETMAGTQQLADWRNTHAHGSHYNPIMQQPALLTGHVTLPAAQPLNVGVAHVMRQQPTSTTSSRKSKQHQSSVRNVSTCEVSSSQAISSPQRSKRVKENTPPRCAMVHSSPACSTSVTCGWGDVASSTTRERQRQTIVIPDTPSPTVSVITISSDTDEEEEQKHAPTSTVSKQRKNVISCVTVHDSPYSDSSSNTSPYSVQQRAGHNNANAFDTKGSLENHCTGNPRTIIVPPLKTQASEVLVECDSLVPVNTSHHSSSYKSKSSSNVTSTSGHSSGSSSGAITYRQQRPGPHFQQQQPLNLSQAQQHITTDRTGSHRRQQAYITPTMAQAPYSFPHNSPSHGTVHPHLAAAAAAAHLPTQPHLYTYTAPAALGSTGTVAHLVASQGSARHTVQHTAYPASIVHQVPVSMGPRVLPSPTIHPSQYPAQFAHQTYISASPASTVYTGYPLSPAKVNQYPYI
Maternal embryonic leucine zipper kinase, sequence (Q14680 whole entry): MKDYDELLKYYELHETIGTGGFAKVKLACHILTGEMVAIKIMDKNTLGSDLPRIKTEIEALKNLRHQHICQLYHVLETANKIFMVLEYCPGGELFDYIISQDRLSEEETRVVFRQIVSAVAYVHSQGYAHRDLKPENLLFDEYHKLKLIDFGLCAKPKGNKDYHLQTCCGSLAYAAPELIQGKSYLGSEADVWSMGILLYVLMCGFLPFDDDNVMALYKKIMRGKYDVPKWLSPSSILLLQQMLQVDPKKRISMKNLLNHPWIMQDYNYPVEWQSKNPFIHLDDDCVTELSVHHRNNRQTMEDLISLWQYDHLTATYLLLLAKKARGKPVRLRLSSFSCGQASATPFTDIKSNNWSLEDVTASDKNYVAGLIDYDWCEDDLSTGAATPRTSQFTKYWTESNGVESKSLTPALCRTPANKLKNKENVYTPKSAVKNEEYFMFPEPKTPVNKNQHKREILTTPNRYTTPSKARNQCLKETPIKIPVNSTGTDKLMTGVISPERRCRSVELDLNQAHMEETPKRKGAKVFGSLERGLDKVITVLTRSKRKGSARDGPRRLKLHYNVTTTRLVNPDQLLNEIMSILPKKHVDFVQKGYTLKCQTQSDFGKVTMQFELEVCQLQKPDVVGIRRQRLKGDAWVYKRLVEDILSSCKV
Casein kinase I isoform alpha, sequence (P48729 whole entry, canonical isoform): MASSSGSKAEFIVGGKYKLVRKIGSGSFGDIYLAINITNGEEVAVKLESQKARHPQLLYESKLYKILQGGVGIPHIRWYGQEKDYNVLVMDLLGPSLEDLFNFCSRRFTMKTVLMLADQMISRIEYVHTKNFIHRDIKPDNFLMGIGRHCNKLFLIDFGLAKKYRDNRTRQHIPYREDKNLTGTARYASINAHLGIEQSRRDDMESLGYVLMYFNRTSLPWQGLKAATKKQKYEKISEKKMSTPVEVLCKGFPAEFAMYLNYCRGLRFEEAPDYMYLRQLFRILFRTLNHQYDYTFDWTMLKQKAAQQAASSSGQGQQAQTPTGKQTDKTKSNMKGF

As for `CC(C)CC(=O)NC(c1cccs1)c1ccc2cccnc2c1O` (stereo not given), the EC50 in [1] was > 150 µM (inactive); in [2] it was 1.48 µM (active). For the same compound, the IC50 in assay [3] was > 119 µM (inactive).
In the case of `CCOC(=O)c1ccc(NC2=CC(=O)C(=O)c3ccccc32)cc1`, the IC50 at Hexokinase HKDC1 was 43.9 µM (inactive).
For `OC(CNCCC1C=Nc2ccccc21)Cn1c2ccc(Cl)cc2c2cc(Cl)ccc21` (stereo not given), the AC50 in assay [4] is 12.8 µM (active); in assay [7] it was 6.08 µM (active); on CAAX prenyl protease 1, 4.42 µM (active); in [8] it was 7.91 µM (active). Moreover, the EC50 is 4.36 µM (inconclusive) in the assay with BJ [5], 5.42 µM (inconclusive) with BJ [6] and 5.3 µM (inconclusive) in the assay on BJ [9].
`NC1CCC(Nc2nc(Cl)cc(-c3c[nH]c4ncccc34)n2)CC1` (stereo not given): the Ki in assay [10] was 0.00316 µM (active); in [11], 0.0126 µM (active); on Misshapen-like kinase 1 it was 0.02 µM (active); in assay [12], 0.002 µM (active); in assay [13], 0.0398 µM (active); in assay [14] it was > 3.98 µM (inactive). Moreover, the pKi in assay [10] is listed as 8.5; in assay [11], 7.9; on Misshapen-like kinase 1 it was 7.7; in assay [12], 8.7; in [13] it was 7.4.
For `O=C(O)C1CN(Cc2ccc(OCc3ccccc3)cc2Cl)C1`, the Ki in assay [15] and in assay [16] was > 3.98 µM (inactive) in each case.
As to `Cc1ccccc1-c1cc2c(nn1)-c1ccccc1C2=O`, the concentration for half-maximal inhibition (IC50) in assay [17] was > 50 µM (not active).
